We go through eleven compounds from patent publication US8871754B2, “Compounds and compositions for the treatment of parasitic diseases” (IRM LLC, priority 2012, dated 2014).

For the test, the system named is P. falciparum (NF54 or 3D7 strain) in infected human erythrocytes. The test can be described thus: Assay for P. falciparum proliferation in infected human blood cells (SYBR Green). To be noted: Plasmodium falciparum, Erythrocyte; NF54 or 3D7 strain, 72 hours, SYBR Green fluorescence; read-out: EC50 (nM), inhibitory efficacy in delaying P. falciparum proliferation in infected human blood cells. The format is cell-based. On the procedure:
Assay for P. falciparum Proliferation in Infected Human Blood Cells
Compounds of the invention can be assayed to measure their capacity to inhibit proliferation of P. falciparum parasitemia in infected red blood cells. This parasite proliferation assay measures the increase in parasite DNA content using a DNA intercalating dye, SYBR Green® (INVITROGEN®) which has a high affinity for double stranded DNA.
NF54 or 3D7 P. falciparum strain is grown in complete culturing media until parasitemia reaches 3% to 8% with O+ human erythrocytes. […] 20 μl of screening media is dispensed into 384 well assay plates. 50 nl of compounds of the invention (in DMSO), including antimalarial controls (mefloquine, pyrimethamine and artemisinin), are then transferred into the assay plates, as well as DMSO alone to serve as a negative control for inhibition. Then 30 μl of a suspension of a NF54 or 3D7 P. falciparum infected erythrocytes in screening media is dispensed into the assay plates such that the final hematocrit is 2.5% with a final parasitemia of 0.3%. The plates are placed in a 37° C. incubator for 72 hours in a low oxygen environment containing 93% N2, 4% CO2, and 3% O2 gas mixture. 10 μl of lysis buffer (saponin, triton-X, EDTA) containing a 10× solution of SYBR Green I® in RPMI media is dispensed into the plates. The plates are lidded and kept at room temperature overnight for the lysis of the infected red blood cells. The fluorescence intensity is measured (excitation […], emission 530 nm) using the Envision™ system (Perkin Elmer). The percentage inhibition of 50%, […], is calculated for each compound.
For `CC(Cn1cccn1)N(C(=O)c1ccn2ncc(-c3ccc(C(N)=O)cc3)c2c1)c1ccc(C#N)cn1` (centres unmarked) [Example 77, N-(1-(1H-pyrazol-1-yl)propan-2-yl)-3-(4-carbamoylphenyl)-N-(5-cyanopyridin-2-yl)pyrazolo[1,5-a]pyridine-5-carboxamide], the EC50 stood at 146 nM.
For `CN(C(=O)c1ccn2ncc(-c3cnc4[nH]ccc4c3)c2c1)c1ccc(C#N)cn1` [Example 53, N-(5-cyanopyridin-2-yl)-N-methyl-3-(1H-pyrrolo[2,3-b]pyridin-5-yl)pyrazolo[1,5-a]pyridine-5-carboxamide], the EC50 was determined as 1 nM.
For the compound `CC(=O)Nc1ccc(-c2cnn3ccc(C(C)N(C)c4ccc(C)cn4)cc23)cc1` (centres unmarked) [Example 68, N-(4-(5-(1-(methyl(5-methylpyridin-2-yl)amino)ethyl)pyrazolo[1,5-a]pyridin-3-yl)phenyl)acetamide], the EC50 is 6750 nM.
For the compound `CN(C(=O)c1ccn2ncc(-c3cnc(N)c(F)c3)c2c1)c1ccc(C#N)cc1` [Example 79, 3-(6-amino-5-fluoropyridin-3-yl)-N-(4-cyanophenyl)-N-methylpyrazolo[1,5-a]pyridine-5-carboxamide], the EC50 turned out to be 7 nM.
For `CN(C(=O)c1ccn2ncc(-c3ccc(NC(=O)CN)cc3)c2c1)c1ccc(C#N)cc1` [Example 43, 3-(4-(2-aminoacetamido)phenyl)-N-(4-cyanophenyl)-N-methylpyrazolo[1,5-a]pyridine-5-carboxamide] the value was 9 nM; for `CN(C(=O)c1ccn2ncc(-c3ccc(C(N)=O)cc3)c2c1)c1ccc(Cl)cc1C=O` [Example 89, 3-(4-carbamoylphenyl)-N-(4-chloro-2-formylphenyl)-N-methylpyrazolo[1,5-a]pyridine-5-carboxamide], 6 nM.
For `Fc1ccc(SCc2ccn3ncc(-c4ccc(C(F)(F)F)cc4)c3c2)cc1` [Example 21, 5-(((4-fluorophenyl)thio)methyl)-3-(4-(trifluoromethyl)phenyl)pyrazolo[1,5-a]pyridine] the value was 472 nM; for `CN(C(=O)c1ccc(Cl)cc1)c1ccn2ncc(-c3ccc(C(F)(F)F)cc3)c2c1` [Example 55, 4-chloro-N-methyl-N-(3-(4-(trifluoromethyl)phenyl)pyrazolo[1,5-a]pyridin-5-yl)benzamide], 32 nM.
For `CN(Cc1ccn2ncc(-c3ccc(C(F)(F)F)cc3)c2c1)c1ccc(F)cc1` [Example 2, 4-fluoro-N-methyl-N-((3-(4-(trifluoromethyl)phenyl)pyrazolo[1,5-a]pyridine-5-yl)methyl)aniline] the value was 342 nM; for `Fc1ccc(OCc2ccn3ncc(-c4ccc(C(F)(F)F)cc4)c3c2)cc1` [Example 8, 5-((4-fluorophenoxy)methyl)-3-(4-(trifluoromethyl)phenyl)pyrazolo[1,5-a]pyridine], 532 nM.
In the case of `CN(C(=O)c1ccn2ncc(-c3cnc(N)c(C(F)(F)F)c3)c2c1)c1ccc(C#N)cn1` [Example 84, 3-(6-amino-5-(trifluoromethyl)pyridin-3-yl)-N-(5-cyanopyridin-2-yl)-N-methylpyrazolo[1,5-a]pyridine-5-carboxamide], the EC50 was 6 nM.
